system: Palmitoyl CoA oxidation in rat heart mitochondria; assay: Mitochondrial assay: Palmitoyl CoA oxidation; assay type: biochemical; details: 16 microM 1-C14 palmitoyl CoA, 15 min at 30° C., read-out: Effect of Compounds of the Invention on Palmitoyl CoA Oxidation (IC50)
Description: Rat heart mitochondria were isolated by the method of Nedergard and Cannon (Methods in Enzymol. 55, 3, 1979).
Palmitoyl CoA oxidation—The Palmitoyl CoA oxidation was carried out in a total volume of 100 micro liters containing the following agents: 110 mM KCl, 33 mM Tris buffer at pH 8, 2 mM KPi, 2 mM MgCl2, 0.1 mM EDTA, 14.7 microM defatted BSA, 0.5 mM malic acid, 13 mM carnitine, 1 mM ADP, 52 micrograms of mitochondrial protein, and 16 microM 1-C14 palmitoyl CoA (Sp. Activity 60 mCi/mmole; 20 microCi/ml, using 5 microliters per assay). The compounds of this invention were added in a DMSO solution at the following concentrations: 100 micro molar, 30 micro molar, and 3 micro molar. In each assay, a DMSO control was used. After 15 min at 30° C., the enzymatic reaction was centrifuged (20,000 g for 1 min), and 70 microliters of the supernatant was added to an activated reverse phase silicic acid column (approximately 0.5 ml of silicic acid). The column was eluted with 2 ml of water, and 0.5 ml of the eluent was used for scintillation counting to determine the amount of C^14 trapped as C^14 bicarbonate ion.

First: (2R)-3-(2-methylbenzothiazol-5-yloxy)-1-{4-[(2-phenyl(1,3-thiazol-4-yl))methyl]piperazinyl}propan-2-ol
Second: (2R)-3-(2-methylbenzothiazol-5-yloxy)-1-{4-[(5-phenyl(1,3,4-oxadiazol-2-yl))methyl]piperazinyl}propan-2-ol
The IC50 of the first is 2.5-fold higher: 2700 nM for the first, 1100 nM for the second. The second is the more potent here.

First: (2R)-3-((2S)-4-{[5-(2-chlorophenyl)(1,3,4-oxadiazol-2-yl)]methyl}-2-methylpiperazinyl)-1-(2-methylbenzothiazol-5-yloxy)propan-2-ol
Second: (2R)-3-((2S)-4-{[5-(3,4-dichlorophenyl)isoxazol-3-yl]methyl}-2-methylpiperazinyl)-1-(2-methylbenzothiazol-5-yloxy)propan-2-ol
The IC50 of the first is 2.1-fold lower: 340 nM for the first, 730 nM for the second.

“(2R)-3-((2S)-4-{[5-(4-methoxyphenyl)(1,3,4-oxadiazol-2-yl)]methyl}-2-methylpiperazinyl)-1-(2-methylbenzothiazol-5-yloxy)propan-2-ol” and “(2R)-3-((3S)-3-methyl-4-{[5-(4-phenylphenyl)isoxazol-3-yl]methyl}piperazinyl)-1-(2-methylbenzothiazol-5-yloxy)propan-2-ol” are within 1.5-fold of each other in IC50: 1240 nM for the first, 970 nM for the second.

“(2R)-3-((3S)-3-methyl-4-{[5-(4-trifluoromethylphenyl)isoxazol-3-yl]methyl}-piperazinyl)-1-(2-methylbenzothiazol-5-yloxy)propan-2-ol” and “(2R)-3-[(2S)-2-methyl-4-({2-[4-(trifluoromethyl)phenyl](1,3-oxazol-5-yl)}methyl)piperazinyl]-1-(2-methylbenzothiazol-5-yloxy)propan-2-ol” are within 1.5-fold of each other in IC50: 250 nM for the first, 370 nM for the second.

Going from “(2R)-3-[(2S)-2-methyl-4-({5-[2-chlorophenyl]isoxazol-3-yl}methyl)piperazinyl]-1-(2-methylbenzothiazol-5-yloxy)propan-2-ol” to “(2R)-3-[(2S)-2-methyl-4-({5-[4-(trifluoromethyl)phenyl](1,2,4-oxadiazol-3-yl)}methyl)piperazinyl]-1-(2-methylbenzothiazol-5-yloxy)propan-2-ol”, the IC50 falls from 600 nM to 250 nM (2.4-fold). The second is the more potent here.

“(2R)-3-{(2S)-2-methyl-4-[(3-(2-thienyl)(1,2,4-oxadiazol-5-yl))methyl]piperazinyl}-1-(2-methylbenzothiazol-5-yloxy)propan-2-ol” and “(2R)-3-{(2S)-2-methyl-4-[(3-phenylisoxazol-5-yl)methyl]piperazinyl}-1-(2-methylbenzothiazol-5-yloxy)propan-2-ol” are within 1.5-fold of each other in IC50: 490 nM for the first, 410 nM for the second.

Compared with “(2R)-3-{(2S)-2-methyl-4-[(5-phenylbenzoxazol-2-yl)methyl]piperazinyl}-1-(2-methylbenzothiazol-5-yloxy)propan-2-ol”, “(2R)-3-{(3S)-3-methyl-4-[(3-(4-methoxyphenyl)isoxazol-5-yl)methyl]piperazinyl}-1-(2-methylbenzothiazol-5-yloxy)propan-2-ol” is 2.8-fold lower in IC50: 2100 nM for the first, 740 nM for the second.

Going from “(2R)-3-{(3S)-3-methyl-4-[(5-(2-chlorophenyl)isoxazol-3-yl)methyl]piperazinyl}-1-(2-methylbenzothiazol-5-yloxy)propan-2-ol” to “(2R)-3-{(3S)-3-methyl-4-[(5-(3,4-dichlorophenyl)isoxazol-3-yl)methyl]piperazinyl}-1-(2-methylbenzothiazol-5-yloxy)propan-2-ol”, the IC50 rises from 60 nM to 250 nM (4.2-fold). The first is the more potent here.

“(2R)-3-{(3S)-3-methyl-4-[(5-(4-chlorophenyl)isoxazol-3-yl)methyl]piperazinyl}-1-(2-methylbenzothiazol-5-yloxy)propan-2-ol” was tested, and the IC50 was 330 nM.

— patent US7056924B2, “Substituted heterocyclic compounds” (CV Therapeutics, Inc., priority 2002, dated 2006)
